# According to paper PMC6754450, “Antimicrobial activity and mechanism of action of a novel peptide present in the ecdysis process of centipede Scolopendra subspinipes subspinipes” (Scientific Reports, 2019):
# Where a SMILES comes first, the peptide text is derived from it.
# How the values were obtained:
# [1] = 25% fresh human blood plasma in water, 37 °C; 20 µL of 10 mg/mL peptide stock in 1 mL; TFA quench; LC/ESI-MS peak area; triplicate; followed over 360 min
# Method: An aliquot (20 μL) of the aqueous peptide stock solution (10 mg/mL) was added to 1 mL of 25% solution of fresh human blood plasma in water at 37 °C. Aliquots (50 μL) were withdrawn and added to 5 μL of pure trifluoroacetic acid (TFA) at different time intervals, then incubated at 5 °C for 15 min. Following incubation, the resulting mixtures were centrifuged at 3000 g for 5 min. The supernatants (20 μL) were injected into an online LC/ESI-MS equipment. Elution was performed using an ACN/TFA linear gradient of 3% to 57% ACN at a flow rate of 0.3 mL/min for 30 min. The remaining peptide was monitored by the corresponding peak area in the chromatogram. Assays were conducted in triplicate.
# The human blood sample was obtained from a healthy adult donor at Vital Brazil Hospital in accordance with Ethical Guidelines of the Butantan Institute (protocol CEUAIB No. I-1043/13). Written informed consent was obtained from the donor.
# [2] = tested on: All of the microorganisms tested; assay: Antimicrobial activity, summary over all microorganisms tested; assay type: cell-based; settings: summary of Table 1; 17 bacterial, yeast and fungal strains
# Method: (§1) During the purification procedure, the antimicrobial activities of the fractions were monitored by liquid growth inhibition assays against E. coli SBS 363, M. luteus A270, A. niger, and C. albicans MDM8. Bacteria were cultured in poor nutrient broth (PB) (1.0 g peptone in 100 mL of water containing 86 mM NaCl at pH 7.4; 217 mOsm), and fungi and yeasts were cultured in poor potato dextrose broth (1/2- strength PDB) (1.2 g potato dextrose in 100 mL of water at pH 5.0; 79 mOsm). Determination of antimicrobial activity was performed as previously described[12]–[14].
# (§2) The MIC is defined as the minimum concentration of peptide required to achieve 100% growth inhibition. […] The two peptides were dissolved in ultrapure water at a final concentration of 1 mM. […] MBCs were determined after 96 h of incubation at 30 °C. The lowest concentration with no visible growth was defined as the MBC, indicating 99.5% killing of the original inoculum. Microbial growth was measured by monitoring the increase in optical density at 595 nm using a Victor 3TM 1420 multilabel counter (PerkinElmer, Waltham, MA, USA). Assays were performed in triplicate.
# [3] = tested on: Saccharomyces cerevisiae PM340; assay: Liquid growth inhibition assay (MIC/MBC); assay type: cell-based; settings: 1/2-strength PDB, highest concentration tested 100 µM, triplicate
# Method: as §1, §2
# [4] = tested on: Candida tropicalis IOC 4560; assay: Liquid growth inhibition assay (MIC/MBC); assay type: cell-based; settings: 1/2-strength PDB, highest concentration tested 100 µM, triplicate
# Method: as §1, §2
# Micrococcus luteus A270 = assay: Liquid growth inhibition assay (MIC/MBC); assay type: cell-based; settings: PB medium, highest concentration tested 100 µM, triplicate
# Method: as §1, §2
# [5] = tested on: Bacillus megaterium ATCC 10778; assay: Liquid growth inhibition assay (MIC/MBC); assay type: cell-based; settings: PB medium, highest concentration tested 100 µM, triplicate
# Method: as §1, §2
# [6] = tested on: Enterobacter cloacae β-12; assay: Liquid growth inhibition assay (MIC/MBC); assay type: cell-based; settings: PB medium, highest concentration tested 100 µM, triplicate
# Method: as §1, §2
# Candida albicans MDM8 = assay: Liquid growth inhibition assay (MIC/MBC); assay type: cell-based; settings: 1/2-strength PDB, highest concentration tested 100 µM, triplicate
# Method: as §1, §2
# [7] = tested on: Alcaligenes faecalis ATCC 8750; assay: Liquid growth inhibition assay (MIC/MBC); assay type: cell-based; settings: PB medium, highest concentration tested 100 µM, triplicate
# Method: as §1, §2
# Escherichia coli D31 = assay: Liquid growth inhibition assay (MIC/MBC); assay type: cell-based; settings: PB medium, highest concentration tested 100 µM, triplicate
# Method: as §1, §2
# [8] = tested on: Salmonella Typhimurinum ATCC 14028; assay: Liquid growth inhibition assay (MIC/MBC); assay type: cell-based; settings: PB medium, highest concentration tested 100 µM, triplicate
# Method: as §1, §2
# Escherichia coli SBS 363 = assay: Liquid growth inhibition assay (MIC/MBC); assay type: cell-based; settings: PB medium, highest concentration tested 100 µM, triplicate
# Method: as §1, §2
# [9] = tested on: Pseudomonas aeruginosa ATCC 27853; assay: Liquid growth inhibition assay (MIC/MBC); assay type: cell-based; settings: PB medium, highest concentration tested 100 µM, triplicate
# Method: as §1, §2
# [10] = tested on: Staphylococcus aureus ATCC 29213; assay: Liquid growth inhibition assay (MIC/MBC); assay type: cell-based; settings: PB medium, highest concentration tested 100 µM, triplicate
# Method: as §1, §2
# [11] = tested on: Serratia marcescens ATCC 4112; assay: Liquid growth inhibition assay (MIC/MBC); assay type: cell-based; settings: PB medium, highest concentration tested 100 µM, triplicate
# Method: as §1, §2
# [12] = tested on: Bacillus subtilis ATCC 6633; assay: Liquid growth inhibition assay (MIC/MBC); assay type: cell-based; settings: PB medium, highest concentration tested 100 µM, triplicate
# Method: as §1, §2
# [13] = tested on: Salmonella Arizonae ATCC 13314; assay: Liquid growth inhibition assay (MIC/MBC); assay type: cell-based; settings: PB medium, highest concentration tested 100 µM, triplicate
# Method: as §1, §2
# Beauveria bassiana = assay: Liquid growth inhibition assay (MIC/MBC); assay type: cell-based; settings: 1/2-strength PDB, highest concentration tested 100 µM, triplicate
# Method: as §1, §2
# Aspergillus niger = assay: Liquid growth inhibition assay (MIC/MBC); assay type: cell-based; settings: 1/2-strength PDB, highest concentration tested 100 µM, triplicate
# Method: as §1, §2
# human erythrocytes = assay: Haemolytic activity; assay type: cell-based; settings: 3% erythrocytes in PBS, 3 h, 37 °C; for Haemolysis (%): A414, relative to 0.1% Triton X-100, triplicate
# Method: Absorbance in the supernatant was measured at 414 nm. The haemolysis percentage was expressed in relation to a 100% lysis control (erythrocytes incubated with 0.1% Triton X-100); PBS was used as a negative control. Assays were conducted in triplicate.
# Red blood cells were obtained under the same conditions and from the same donor mentioned in the plasma stability assay section.
# [14] = 100% growth inhibition, two-fold serial dilution, 30 °C, 18 h
# [15] = no visible growth after 96 h at 30 °C
compound,measurement,setting,value
CC(=O)N[C@H](C(=O)N[C@@H](C)C(=O)N[C@@H](CCC(=O)O)C(=O)N[C@@H](C)C(=O)N[C@@H](CCCNC(=N)N)C(=O)N[C@@H](CCC(N)=O)C(=O)NCC(=O)N[C@@H](CO)C(=O)N[C@@H](Cc1ccccc1)C(=O)N[C@@H](CO)C(=O)N[C@@H](Cc1ccc(O)cc1)C(N)=O)C(C)C [Pinipesin AC] (Ac-VAEARQGSFSY-NH2),Time within which peptide is almost totally digested in human plasma,[1],≤ 60 min
same,Concentrations at which active against all microorganisms tested,[2],did not show antimicrobial activity
CC(C)[C@H](N)C(=O)N[C@@H](C)C(=O)N[C@@H](CCC(=O)O)C(=O)N[C@@H](C)C(=O)N[C@@H](CCCNC(=N)N)C(=O)N[C@@H](CCC(N)=O)C(=O)NCC(=O)N[C@@H](CO)C(=O)N[C@@H](Cc1ccccc1)C(=O)N[C@@H](CO)C(=O)N[C@@H](Cc1ccc(O)cc1)C(=O)O [Pinipesin] (H-VAEARQGSFSY-OH),MIC,[3]; [14],30.33 mg/L
same,MBC,[3]; [15],30.33 mg/L
same,MIC,[4]; [14],30.33 mg/L
same,MBC,[4]; [15],30.33 mg/L
same,MIC,Micrococcus luteus A270; [14],7.58 mg/L
same,MBC,Micrococcus luteus A270; [15],15.16 mg/L
same,MIC,[5]; [14],15.16 mg/L
same,MBC,[5]; [15],15.16 mg/L
same,MIC,[6]; [14],30.33 mg/L
same,MBC,[6]; [15],30.33 mg/L
same,MIC,Candida albicans MDM8; [14],30.33 mg/L
same,MBC,Candida albicans MDM8; [15],30.33 mg/L
same,MIC,[7]; [14],15.16 mg/L
same,MBC,[7]; [15],15.16 mg/L
same,MIC,Escherichia coli D31; [14],15.16 mg/L
same,MBC,Escherichia coli D31; [15],15.16 mg/L
same,MIC,[8]; [14],15.16 mg/L
same,MBC,[8]; [15],15.16 mg/L
same,MIC,Escherichia coli SBS 363; [14],30.33 mg/L
same,MBC,Escherichia coli SBS 363; [15],30.33 mg/L
same,MIC,[9]; [14],15.16 mg/L
same,MBC,[9]; [15],15.16 mg/L
same,MIC,[10]; [14],7.58 mg/L
same,MBC,[10]; [15],7.58 mg/L
same,MIC,[11]; [14],30.33 mg/L
same,MBC,[11]; [15],30.33 mg/L
same,MIC,[12]; [14],30.33 mg/L
same,MBC,[12]; [15],30.33 mg/L
same,MIC,[13]; [14],30.33 mg/L
same,MBC,[13]; [15],30.33 mg/L
same,MIC,Beauveria bassiana; [14],30.33 mg/L
same,MBC,Beauveria bassiana; [15],30.33 mg/L
same,MIC,Aspergillus niger; [14],30.33 mg/L
same,MBC,Aspergillus niger; [15],30.33 mg/L
same,Time within which peptide is almost totally digested in human plasma,[1],≤ 60 min
same,Haemolysis (%),human erythrocytes; 4 µM peptide,0%
same,Haemolysis (%),human erythrocytes; 8 µM peptide,0%
same,Haemolysis (%),human erythrocytes; 16 µM peptide,0%
same,Haemolysis (%),human erythrocytes; 32 µM peptide,0%
same,Haemolysis (%),human erythrocytes; 125 µM peptide,0%
same,Haemolysis (%),human erythrocytes; 250 µM peptide,0%
same,Haemolysis (%),human erythrocytes; 500 µM peptide,25.14%
same,"Haemoglobin release at the concentrations active against bacteria, yeasts and fungi",human erythrocytes,No haemoglobin release was observed
